# Results: paper PMC3672471 (The Biochemical journal, 2009)
# Biological target: β-lactoglobulin (Bos taurus, UniProt P02754)
# Experiment: isothermal titration calorimetry
# Type: binding
# Sequence of β-lactoglobulin (P02754 17-178): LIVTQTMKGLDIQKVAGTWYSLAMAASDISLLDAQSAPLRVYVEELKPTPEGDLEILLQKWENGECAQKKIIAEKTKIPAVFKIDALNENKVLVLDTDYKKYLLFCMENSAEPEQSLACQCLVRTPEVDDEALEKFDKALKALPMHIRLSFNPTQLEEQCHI
structure (smiles),measurement,value
"CCCCCC(=O)OC[C@@H](O)COP(=O)(O)O [HHGP, 1-hexanoyl-2-hydroxy-sn-glycero-3-phosphate]",Kd,1.4 µM
